Consider eleven compounds from patent US9409864B2, “Sulfonamide TRPA1 receptor antagonists” (ARIO PHARMA LIMITED, priority 2013, dated 2016).

Like-named read-outs stand apart in the source and are kept apart here.

Test [1] addresses T1, native human TRPA1 receptors (Homo sapiens, UniProt O75762).
T1 construct: stably expressing native human TRPA1 receptors were used; endogenous in cells; host or cells: A549 human lung adenocarcinoma epithelial cell line
Nature of the test: PF-4840154 (1 μM)-induced Ca2+ fluorescence measurements in A549 cell line. The settings on record: for inhibition at 10 µM: 10 μM compound against 1 μM PF-4840154, A549 cells; for IC50: against PF-4840154 (1 μM)-evoked [Ca2+]i mobilization, A549 cells. The class given is cell-based. The essentials:
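A549 cells stably expressing native human TRPA1, Fluo-4 AM loaded; fluorescence Ca2+ read in HBSS with probenecid and Brilliant Black at 36.5 °C. Compounds tested alone for agonism and against 1 μM PF-4840154 for inhibition at initial 10 μM; IC50 from full concentration-response curves for selected compounds.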

The test system of test [2] is PF-4840154-induced mechanical hyperalgesia in rats. In words: Agonist (PF-4840154)-induced mechanical hyperalgesia in rats. The test is classed as in vivo. The settings on record: Rattus norvegicus, 30 μmol/kg oral, PF-4840154 0.05 nmol/50 μl/paw intraplantar. The source says: Agonist (PF-4840154)-Induced Mechanical Hyperalgesia in Rats
The method is used to investigate the anti-hyperalgesic effects of the compounds listed in the present invention following agonist (PF-4840154)-induced hyperalgesic responses. The activity is indicative of TRPA1 receptor occupancy following oral dosing. Specifically, male SD rats (Charles River, Italy) weighing 70-100 g. were used. The anti-hyperalgesic effects were investigated using the electronic dynamometer test. PF-4840154 (Sigma, USA) was used to induce mechanical hyperalgesia. Local, intraplantar injection of PF-4840154 at 0.05 nmol/50 μl/paw caused the reduction of the hind paw withdrawal response induced by mechanical stimuli. Mechanical stimulation was induced in basal condition and 30, 60, 120, 180 and 240 minutes after the oral administration of the antagonists dissolved in 2.5% DMSO and 30% Solutol. Compounds were orally administered (30 μmol/kg/10 ml) to rats 1 hour before the injection of PF-4840154 into the plantar surface of a rat's hind using a micro syringe.

For test [3], the target named is T2, TRPA1 (cultured rat dorsal root ganglia neurons) (Rattus norvegicus, UniProt Q6RI86).
T2 construct: calcium assay data obtained in primary culture of rat dorsal ganglia neurons; from tissue; host or cells: primary culture of dorsal root ganglia neurons from male SD rats
T2 sequence (Q6RI86 whole entry): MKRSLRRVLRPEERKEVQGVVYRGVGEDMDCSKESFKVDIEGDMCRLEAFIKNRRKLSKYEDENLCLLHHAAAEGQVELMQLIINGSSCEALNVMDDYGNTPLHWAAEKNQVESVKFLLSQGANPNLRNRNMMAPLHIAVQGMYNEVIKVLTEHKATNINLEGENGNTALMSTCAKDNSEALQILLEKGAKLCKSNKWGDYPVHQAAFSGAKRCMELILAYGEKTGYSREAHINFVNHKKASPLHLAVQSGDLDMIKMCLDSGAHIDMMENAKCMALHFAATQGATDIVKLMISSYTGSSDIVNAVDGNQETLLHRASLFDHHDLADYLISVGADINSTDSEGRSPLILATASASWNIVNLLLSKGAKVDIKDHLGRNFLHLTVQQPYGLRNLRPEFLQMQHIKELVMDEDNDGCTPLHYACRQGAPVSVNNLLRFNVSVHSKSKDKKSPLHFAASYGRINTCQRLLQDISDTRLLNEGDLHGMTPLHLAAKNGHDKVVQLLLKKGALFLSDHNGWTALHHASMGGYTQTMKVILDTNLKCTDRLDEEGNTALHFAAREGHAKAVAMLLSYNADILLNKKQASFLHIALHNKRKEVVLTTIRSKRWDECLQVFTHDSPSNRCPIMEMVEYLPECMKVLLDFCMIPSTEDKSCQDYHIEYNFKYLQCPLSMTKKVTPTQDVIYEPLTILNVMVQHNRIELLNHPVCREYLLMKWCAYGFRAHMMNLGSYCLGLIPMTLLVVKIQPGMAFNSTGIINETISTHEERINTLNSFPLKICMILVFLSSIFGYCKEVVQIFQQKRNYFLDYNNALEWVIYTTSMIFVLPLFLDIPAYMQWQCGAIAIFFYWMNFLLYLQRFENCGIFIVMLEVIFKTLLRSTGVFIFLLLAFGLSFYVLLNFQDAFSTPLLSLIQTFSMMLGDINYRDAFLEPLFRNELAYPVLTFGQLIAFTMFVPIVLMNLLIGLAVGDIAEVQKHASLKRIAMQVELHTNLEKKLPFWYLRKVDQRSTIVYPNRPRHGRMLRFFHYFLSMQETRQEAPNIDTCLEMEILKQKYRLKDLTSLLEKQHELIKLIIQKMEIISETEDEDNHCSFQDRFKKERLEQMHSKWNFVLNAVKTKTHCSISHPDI
In words: PF-4840154 (10 μM)-induced Ca2+ fluorescence measurements in cultured rat dorsal root ganglia neurons. The class given is cell-based. The settings on record: against 10 μM PF-4840154-induced [Ca2+]i mobilization, primary culture of rat dorsal ganglia neurons. How it is done:
PF-4840154 (10 μM)-Induced Ca^2+ Fluorescence Measurements in Cultured Rat Dorsal Root Ganglia Neurons
Male SD rats (˜50 g, Charles River, Italy) were terminally anaesthetized and decapitated. Dorsal root ganglia were removed and placed in cold Hank's balanced salt solution (HBSS) before being transferred to collagenase (2 mg/ml) and trypsin (1 mg/ml) for 35 min at 37° C. The ganglia, placed in cold DMEM supplemented with 10% fetal bovine serum, 10% horse serum, 2 mM L-glutamine, 100 U/ml penicillin and 100 μg/ml streptomycin, were dissociated in single cells by several passages through a series of syringe needles (23G down to 25G). The medium and the ganglia were filtered to remove debris, topped up with 4 ml of DMEM medium and centrifuged (1100 rpm for 6 min). The final cell pellet was re-suspended in DMEM medium [supplemented with 100 ng/ml mouse Nerve Growth Factor (mouse-NGF-7S) and cytosine-β-D-arabinofuranoside free base (ARA-C) 2.5 μM]. The cells were plated on poly-L-lysine (8.3 μM)- and laminin (5 μM)-coated 25 mm glass cover slips and kept for 2 days at 37° C. in a humidified incubator gassed with 5% CO2 and air, then treated with Fura-2-AM-ester (5 μM) in a Ca^2+ buffer solution having the following composition (mM): CaCl2 1.4, KCl 5.4, MgSO4 0.4, NaCl 135, D-glucose 5, HEPES 10 with BSA (0.1%), at pH 7.4, for 40 min at 37° C. The cells were then washed twice with the Ca^2+ buffer solution and transferred to a chamber on the stage of a Nikon eclipse TE300 microscope. Fura-2-AM-ester was excited at […] to indicate relative [Ca^2+]i changes by the F340/F380 ratio recorded with a dynamic image analysis system (Laboratory Automation 2.0, RCS, Florence, Italy) and the cells were allowed (at least 10 min) to attain a stable fluorescence before beginning the experiment. A calibration curve was set up using buffer containing Fura-2-AM-ester and determinant concentrations of free Ca^2+. This curve was then used to convert the data obtained from the F340/F380 ratio to [Ca^2+]i (nM).
All exemplified compounds were tested at the concentration of 10 μM against the calcium uptake induced by 10 μM PF-4840154. For selected examples, the entire concentration response curves were constructed and the respective IC50 value calculated.

Test [4] has as its system oxaliplatin-induced mechanical hyperalgesia in rats. Nature of the test: Oxaliplatin-induced mechanical hyperalgesia in rats. The settings on record: Rattus norvegicus, 168 h, 30 μmol/kg oral, 7 days post i.v. oxaliplatin 2.5 mg/kg. The test is classed as in vivo. How it is done: Oxaliplatin-Induced Mechanical Hyperalgesia in Rats
The method described by Nassini et al. (Pain, 2011, 152(7), 1621-31) was used with minor modifications. Restrained rats were treated with a single intravenous bolus injection of oxaliplatin (2.5 mg/kg) dissolved in normal saline. This approach was sufficient to elicit reproducible allodynic behaviour evident 3 days post injection and during the day thereafter. For convenience all acute experiments were conducted 7 days post injection when compounds were orally administered at 30 μmol/kg.

[5] abbreviates: read-out: % of reversal of mechanical allodynia.
The mark [6] stands for this setting: read-out: Maximal inhibition (%).

T1 sequence (O75762 whole entry): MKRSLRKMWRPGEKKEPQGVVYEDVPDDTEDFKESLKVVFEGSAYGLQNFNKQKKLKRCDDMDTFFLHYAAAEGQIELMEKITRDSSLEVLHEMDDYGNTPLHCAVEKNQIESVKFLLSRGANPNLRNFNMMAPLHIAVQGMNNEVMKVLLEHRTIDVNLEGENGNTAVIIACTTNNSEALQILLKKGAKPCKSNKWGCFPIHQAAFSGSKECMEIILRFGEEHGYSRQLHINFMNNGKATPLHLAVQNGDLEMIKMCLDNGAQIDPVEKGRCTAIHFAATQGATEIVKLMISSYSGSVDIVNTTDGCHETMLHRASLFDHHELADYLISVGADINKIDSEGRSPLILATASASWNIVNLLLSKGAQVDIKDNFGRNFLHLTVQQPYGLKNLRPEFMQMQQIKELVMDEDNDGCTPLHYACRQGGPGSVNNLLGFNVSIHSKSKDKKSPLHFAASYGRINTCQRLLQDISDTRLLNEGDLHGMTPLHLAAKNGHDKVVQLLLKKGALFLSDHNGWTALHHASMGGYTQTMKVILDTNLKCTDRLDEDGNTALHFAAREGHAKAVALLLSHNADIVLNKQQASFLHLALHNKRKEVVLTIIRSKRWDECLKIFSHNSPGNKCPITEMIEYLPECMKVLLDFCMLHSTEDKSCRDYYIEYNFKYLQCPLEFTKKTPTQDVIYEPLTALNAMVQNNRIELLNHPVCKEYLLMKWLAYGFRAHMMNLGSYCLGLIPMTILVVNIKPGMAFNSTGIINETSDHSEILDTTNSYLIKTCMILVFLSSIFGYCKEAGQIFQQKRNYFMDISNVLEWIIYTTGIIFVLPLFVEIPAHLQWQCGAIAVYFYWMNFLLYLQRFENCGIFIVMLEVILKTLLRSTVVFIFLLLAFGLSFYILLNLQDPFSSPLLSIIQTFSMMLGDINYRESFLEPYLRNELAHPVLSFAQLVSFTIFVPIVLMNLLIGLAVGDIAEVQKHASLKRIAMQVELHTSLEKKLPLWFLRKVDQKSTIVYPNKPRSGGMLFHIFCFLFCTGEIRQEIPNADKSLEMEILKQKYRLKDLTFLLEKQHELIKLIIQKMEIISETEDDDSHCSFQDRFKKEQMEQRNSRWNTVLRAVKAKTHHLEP

One may read the inhibition as the change of the read-out against control, counted positive when it falls. As a reminder, the IC50 is the point on the concentration scale where inhibition reaches its midpoint. Compound `C=C(C(=O)NCc1ccnc(-c2ccc(OC(F)(F)F)cc2)c1)N(CC)S(=O)(=O)c1ccc(Cl)s1` [Example 7, 2-[(5-chloro-2-thienyl)sulfonyl-ethyl-amino]-N-[[2-[4-(trifluoromethoxy)phenyl]-4-pyridyl]methyl]prop-2-enamide] had an inhibition at 10 µM in test [1] of 100%. In addition, the IC50 in test [1] was found to be 36 nM; in test [3], 29 nM. Further, the inhibition in vivo at 30 µmol/kg in test [2] (setting [5]) and in test [2] (setting [6]) was 74% each time.
For `C=C(C(=O)NCc1cccc(-c2ccc(C(F)(F)F)cc2)c1)N(CC)S(=O)(=O)c1ccc(Cl)cc1` [Example 10, 2-[(4-chlorophenyl)sulfonyl-ethyl-amino]-N-[[3-[4-(trifluoromethyl)phenyl]phenyl]methyl]prop-2-enamide], at 10 µM the inhibition in test [1] was 99%. For the same compound, the figures for the IC50 in test [1] and in test [3] were 25 nM and 47 nM, respectively. In addition, the inhibition in vivo at 30 µmol/kg in test [2] (setting [5]) and in test [2] (setting [6]) was 63% in each case.
`C=C(C(=O)NCc1cccc(-c2ccc(OC(F)(F)F)cc2)c1)N(CC)S(=O)(=O)c1ccc(F)cc1` [Example 11, 2-[ethyl-(4-fluorophenyl)sulfonyl-amino]-N-[[3-[4-(trifluoromethoxy)phenyl]phenyl]methyl]prop-2-enamide] registered an inhibition at 10 µM in test [1] of 99%. Besides, the results for the IC50 in test [1] and in test [3] were 17 nM and 20 nM, respectively. Moreover, the inhibition in vivo at 30 µmol/kg in test [2] (setting [5]) and in test [2] (setting [6]) was 72% in each case.
As to `C=C(C(=O)NCc1cc(-c2ccc(C(F)(F)F)cc2)nc(N2CCCC2)c1)N(CC)S(=O)(=O)c1ccc(Cl)cc1` [Example 14, 2-[(4-chlorophenyl)sulfonyl-ethyl-amino]-N-[[2-pyrrolidin-1-yl-6-[4-(trifluoromethyl)phenyl]-4-pyridyl]methyl]prop-2-enamide], at 10 µM the inhibition in test [1] was 100%. The figures for the IC50 in test [1] and in test [3] were 40 nM and 60 nM, respectively. In addition, the inhibition in vivo at 30 µmol/kg in test [2] (setting [5]) and in test [2] (setting [6]) was 75% in each case.
`C=C(C(=O)NCc1cc(-c2ccc(C(F)(F)F)cc2)nc(N2CCCC2)c1)N(CC)S(=O)(=O)c1ccc(Cl)s1` [Example 15, 2-[(5-chloro-2-thienyl)sulfonyl-ethyl-amino]-N-[[2-pyrrolidin-1-yl-6-[4-(trifluoromethyl)phenyl]-4-pyridyl]methyl]prop-2-enamide] came in with an inhibition at 10 µM in test [1] of 100%. The IC50 was 22 nM in test [1] and 32 nM in test [3]. The inhibition in vivo at 30 µmol/kg in test [2] (setting [5]) and in test [2] (setting [6]) was 72% in each case.
In test [1], `C=C(C(=O)NCc1cc(-c2ccc(C(F)(F)F)cc2)nc(N(C)C)c1)N(CC)S(=O)(=O)c1ccc(F)cc1` [Example 37, N-[[2-dimethylamino-6-[4-(trifluoromethyl)phenyl]-4-pyridyl]methyl]-2-[ethyl-(4-fluorophenyl)sulfonyl-amino]prop-2-enamide] yielded an inhibition at 10 µM of 100%. Inhibition in test [1] was half-maximal at 18 nM (IC50). Besides, the inhibition in vivo at 30 µmol/kg in test [2] (setting [5]) worked out at 95%; in test [2] (setting [6]), 95%; in test [4] (setting [5]) it was 82%; in test [4] (setting [6]), 82%.
In turn, `C=C(C(=O)NCc1cc(OC)nc(-c2ccc(C(F)(F)F)cc2)c1)N(CC)S(=O)(=O)c1ccc(F)cc1` [Example 40, 2-[ethyl-(4-fluorophenyl)sulfonyl-amino]-N-[[2-methoxy-6-[4-(trifluoromethyl)phenyl]-4-pyridyl]methyl]prop-2-enamide] displayed an inhibition at 10 µM in test [1] of 100%. For the same compound, the midpoint of inhibition in test [1], the IC50, lay at 16 nM. Further, the inhibition in vivo at 30 µmol/kg in test [4] (setting [5]) and in test [4] (setting [6]) was 103% each time.
As for `CCN(C1(C(=O)NCc2cc(OC)nc(-c3ccc(C(F)(F)F)cc3)c2)CC1)S(=O)(=O)c1ccc(Cl)s1` [Example 50, 1-[(5-chloro-2-thienyl)sulfonyl-ethyl-amino]-N-[[2-methoxy-6-[4-(trifluoromethyl)phenyl]-4-pyridyl]methyl] cyclopropanecarboxamide], in test [1], at 10 µM the inhibition was 100%. The same compound yielded an IC50 in test [1] of 19 nM. Further, the inhibition in vivo at 30 µmol/kg in test [2] (setting [5]) amounted to 76%; in test [2] (setting [6]), 76%; in test [4] (setting [5]) it was 82%; in test [4] (setting [6]) it was 82%.
In test [1], `CCN(C1(C(=O)NCc2cc(-c3ccc(C(F)(F)F)cc3)nc(N3CCCC3)c2)CC1)S(=O)(=O)c1ccc(F)cc1` [Example 51, 1-[ethyl-(4-fluorophenyl)sulfonyl-amino]-N-[[2-pyrrolidin-1-yl-6-[4-(trifluoromethyl)phenyl]-4-pyridyl]methyl]cyclopropanecarboxamide] showed an inhibition at 10 µM of 100%. The compound also showed an IC50 in test [1] of 41 nM. The inhibition in vivo at 30 µmol/kg in test [2] (setting [5]) was 76%; in test [2] (setting [6]), 76%; in test [4] (setting [5]), 65%; in test [4] (setting [6]) it was 65%.
`CCOc1cc(CNC(=O)C2(N(CC)S(=O)(=O)c3ccc(Cl)s3)CC2)cc(-c2ccc(C(F)(F)F)cc2)n1` [Example 53, 1-[(5-chloro-2-thienyl)sulfonyl-ethyl-amino]-N-[[2-ethoxy-6-[4-(trifluoromethyl)phenyl]-4-pyridyl]methyl] cyclopropanecarboxamide] came in with an inhibition at 10 µM in test [1] of 100%. Also, inhibition in test [1] was half-maximal at 17 nM (IC50). For the same compound, the inhibition in vivo at 30 µmol/kg in test [2] (setting [5]) is 89%; in test [2] (setting [6]), 89%; in test [4] (setting [5]), 83%; in test [4] (setting [6]), 83%.
`CCN(C1(C(=O)NCc2cccc(-c3ccc(C(F)(F)F)cc3)c2)CC1)S(=O)(=O)c1ccc(Cl)s1` [Example 59, 1-[(5-chloro-2-thienyl)sulfonyl-ethyl-amino]-N-[[3-[4-(trifluoromethyl)phenyl]phenyl]methyl]cyclopropanecarboxamide] registered an inhibition at 10 µM in test [1] of 99%. Besides, in test [1], the IC50 was 38 nM. Moreover, the inhibition in vivo at 30 µmol/kg in test [2] (setting [5]) amounted to 111%; in test [2] (setting [6]), 111%; in test [4] (setting [5]), 67%; in test [4] (setting [6]), 67%.
